From US20160101177A1, “pH AND LIGHT ACTIVATED ANTI-CANCER DRUGS” (The Board of Trustees of the University of Alabama, priority 2014, published 2016)
Values joined by “and” are separate entries in the source; they are usually repeats but may differ in a detail not shown here. Equal entries are not always repeated.

What was measured:
[1] = system: human cervical carcinoma (HeLa) cells; assay: MTT cell viability assay in HeLa cells with or without 450 nm irradiation; assay type: cell-based; conditions: for HeLa cell viability, no irradiation: absence of light; for IC50: read-out: IC50 (error)
Method: For cell culture, human cervical carcinoma (HeLa) cells were obtained from the ATCC. The cells were cultured at 37° C. in a 5% CO2, humidified atmosphere in Dulbecco's Modified Eagle Medium (DMEM) supplemented with 10% fetal bovine serum, 100 U/mL penicillin, and 100 μg/ml streptomycin (Invitrogen). Assays were accomplished by seeding cells at a density of 5,000 cells/well in a 96-well plate and incubated at 37° C. overnight. Media was exchanged and then cells were treated with either 100 μM [Ru(bpy)2(66′bpy(OH)2)]^2+, [Ru(bpy)2(44′bpy(OH)2)]^2+, or [Ru(bpy)3]^2+ for 48 h. The medium containing compounds was discarded, cells were washed, and fresh Hank's Balanced Salt Solution was added. In the dark, cells were irradiated using a 450 nm light emitting diode (LED) flashlight positioned 4 cm from the plate for 1 h. The salt solution was exchanged with media and cells were allowed to grow for 24 h. Media containing 20 μL of 3-(4,5-dimethylthiazol-2-yl)-[…] bromide (MTT) (5 mg/mL) was added to each well and incubated for an additional 3 h. The medium was removed. After adding 200 μL of DMSO to each well, the optical densities at 570 nm were determined The p-values were calculated from triplicate data sets using KaleidaGraph software.
Upon irradiation the [Ru(bpy)2(66′bpy(OH)2)]^2+ prodrug can be converted into a cytotoxic agent while in a cell. For example, HeLa cells were plated, incubated with [Ru(bpy)2(66′bpy(OH)2)]^2+, irradiated, and an MTT cell viability assay was used to assess cellular viability. […] The average viability dropped to 93+/−6%. The change is not statistically significant with p greater than 0.05. Similar results were obtained when cells were not treated with the agent and only irradiated for one hour. The viability dropped to 88+/−9%. […] When [Ru(bpy)2(66′bpy(OH)2)]^2+ was incubated with HeLa cells and irradiated the viability dropped to 47+/−12%. This is a statistically significant drop with p less than 0.004 and 0.02 for no ruthenium-complex and no irradiation respectively. Further experiments changing the concentration of [Ru(bpy)2(66′bpy(OH)2)]^2+ in HeLa cells under irradiation can allow for measurement of an inhibitory concentration (IC50). The IC50 for anti-cancer activity is given in Table 1, which are consistent with the data in FIG. 3.

[2] = Kinetics of light-induced ligand photo-dissociation monitored by UV/visible spectroscopy; assay type: physicochemical; conditions: for rate of photodecomposition / ligand loss: pH 7.5 in water
Source text: The rate of ligand loss from [Ru(bpy)2(66′bpy(OH)2)]^2+ to give the active anti-cancer agent ([Ru(bpy)2(solvent)2]^2+) can depend greatly on pH and the solvent composition. At pH 5 in aqueous solution, [Ru(bpy)2(66′bpy(OH)2)]^2+ undergoes blue light induced ligand loss which was monitored by UV/visible spectroscopy over one hour (graph (a) in FIG. 8). At this pH, which is below pKa1 and pKa2, the dihydroxybipyridine ligand should be in its native (protonated) state and should correspond to weaker Ru—N bonds (cf. deprotonated ligand), due to a less electron rich ligand as corroborated by crystallographic and computational results described herein. […] This A→B process is consistent with the clean isosbestic point observed, and furthermore, a first or second order process can be ruled out due to non-linear (curved) plots for these rate laws (see supplementary materials).
At this pH, which is above pKa1 and pKa2, the 6,6′-dihydroxybipyridine ligand should be fully deprotonated, which corresponds to stronger Ru—N bonds. Slight fluctuations in the absorbance values can be attributed to noise, and at this pH the rate of photodecomposition appears to be zero. Thus, the deprotonated, more strongly donating ligand appears to block photodecomposition. Thus, this establishes the framework for how a metal-based prodrug can be selectively activated in cancer cells, which have a lower pH as compared to normal cells.
Studies in acetonitrile were done to monitor the process that gave rise to ([Ru(bpy)2(CH3CN)2]^2+) and investigate the influence of solvent on the rates. […] In contrast, upon irradiation with blue light (450 nm), [Ru(bpy)2(66′bpy(OH)2)]^2+ in acetonitrile undergoes decomposition to give [Ru(bpy)2(CH3CN)2)]^2+ and the free ligand, 66′bpy(OH)2 (λmax=343 nm, 421 nm). These products have been prepared independently and their spectra are consistent with those shown for the final result of photodecomposition (graph (c) in FIG. 8). The observed zero order rate constant, kobs=2.6×10^−7 M/s, was determined by fitting an A→B process at 457 nm. The large changes in light absorption show a clean isosbestic point at λ=422 nm and is consistent with an A→B process. Furthermore, the light induced loss of a ligand is consistent with a zero order process that is independent of concentration. The observed rate constant, kobs=2.6(1)×10^−7 M/s, reflects that photodecomposition is nearly complete (87%) in 5 minutes, and it is entirely complete within 20 minutes, graph (c) in FIG. 8. Thus, the reaction proceeds 15 times more quickly in acetonitrile vs. pH 5 aqueous media. This could be attributed to decreased back reaction in acetonitrile, or enhanced stability of the product ligand in acetonitrile since it is better solvated. The product complex is analogous to the likely product of photodecomposition in vivo, namely [Ru(bpy)2(H2O)2)]^2+.

[3] = pH titration by UV/visible absorbance in aqueous buffers (pKa); assay type: physicochemical; conditions: aqueous buffers pH 1 to 13, 25° C.
Method: ^1H-NMR spectra were collected on a Varian 300 MHz Fourier Transform spectrometer in deuterated acetonitrile (CD3CN) Infrared spectra were obtained on a Perkin Elmer Spectrum One FT-IR with Universal ATR sampling accessory. UV-visible absorption spectra were collected on a Scinco S-3100 diode-array spectrophotometer at a resolution of 1 nm. Luminescence data was collected on a Horiba Jobin Yvon Fluoromax 3. pH measurements were performed using a VWR SympHony pH meter, utilizing a three point calibration at pH=4.0, 7.0, and 10.0.
UV/visible absorbance data was collected for [Ru(bpy)2(66′bpy(OH)2)]^2+ in aqueous buffers ranging from pH=1 to pH=13, FIG. 6. The deprotonated form of [Ru(bpy)2(66′bpy(OH)2)]^2+ is red shifted compared to the protonated form of the complex. The pH titration data can show two distinct events that yielded a pKa1=5.26 and pKa2=7.27.

[4] = 100 μM complex for 48 h, untreated non-irradiated cells = 100%
[5] = HeLa cells under irradiation (450 nm, 1 h), MTT

Compound | HeLa cell viability, no irradiation [1, 4] | IC50 (error) [1, 5] | IC50 [1, 5] [µM] | photo-dissociation of ligand ([2]; blue light) | HeLa cell viability, with irradiation ([1]; 100 μM complex for 48 h, then 450 nm irradiation for 1 h, untreated non-irradiated cells = 100%) | rate in acetonitrile vs. pH 5 aqueous media ([2]; 450 nm blue light) [times] | time to entirely complete photodecomposition ([2]; acetonitrile, 450 nm blue light) [min] | extent of photodecomposition ([2]; acetonitrile, 450 nm blue light, 5 minutes) [%] | kobs, zero order rate constant of photodecomposition ([2]; acetonitrile, 450 nm blue light, followed at 457 nm) | kobs, zero order rate constant of blue light induced ligand loss ([2]; pH 5 aqueous solution, 450 nm blue light, initial rate 0-300 s, followed at 461 nm) | ligand dissociation ([2]; pH 5 in water, blue light) | rate of photodecomposition / ligand loss ([2]; 450 nm blue light) | rate of photodecomposition / ligand loss ([2]; 450 nm blue light, listed as [Ru(bpy)2(66′bpy(OH)2)2)]^2+) | stability in acetonitrile solution ([2]; protected from light or exposed to 720 nm red light) | pKa1 [3] | pKa2 [3]
F[P-](F)(F)(F)(F)F.F[P-](F)(F)(F)(F)F.Oc1ccnc(-c2cc(O)ccn2)c1.[Ru+2].c1ccc(-c2ccccn2)nc1.c1ccc(-c2ccccn2)nc1 [[Ru(bpy)2(44′bpy(OH)2)]^2+, [Ru(bpy)2(44′bpy(OH)2)][PF6]2] | 91+/−4% | no significant effects | > 100 | no photo-dissociation | – | – | – | – | – | – | – | – | – | – | – | –
F[P-](F)(F)(F)(F)F.F[P-](F)(F)(F)(F)F.O.Oc1cccc(-c2cccc(O)n2)n1.[Ru+2].c1ccc(-c2ccccn2)nc1.c1ccc(-c2ccccn2)nc1 [[Ru(bpy)2(66′bpy(OH)2)]^2+, [Ru(bpy)2(66′bpy(OH)2)][PF6]2.H2O] | – | – | 88 | – | 47+/−12% and 47% | 15 | ≤ 20 | 87 | 2.6(1)×10^−7 M/s | 1.7(2)×10^−8 M/s | readily dissociates | no measurable photodecomposition | zero | stable | 5.26 | 7.27
[Cl][Ru][Cl].c1ccc(-c2ccccn2)nc1.c1ccc(-c2ccccn2)nc1.c1ccc(-c2ccccn2)nc1 [[Ru(bpy)3]^2+, [Ru(bpy)3][Cl]2] | 91+/−4% | – | 152 | – | – | – | – | – | – | – | – | – | – | – | – | –
